Experimental data reported in the supplement of paper PMC6045584.
± gives the standard deviation of the averaged measurements.

Key:
[1] = compound: CC(=O)O[C@H]1C(=O)[C@@]2(C)[C@H]([C@H](OC(=O)c3ccccc3)[C@]3(O)C[C@H](OC(=O)[C@H](O)[C@@H](NC(=O)c4ccccc4)c4ccccc4)C(C)=C1C3(C)C)[C@]1(OC(C)=O)CO[C@@H]1C[C@@H]2O [PACLITAXEL]; assay: surviving fraction relative to DMSO-only wells; higher = less growth inhibition; settings: exposure time: 5 days
Procedure, shortened: (§1)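 In 384-well plates, 250–500 log-phase tumour cells per well were given 24 hours before five days of continuous exposure to inhibitors at 0.5, 1, 5, 10, 50, 100, 500 and 1000 nM. Surviving fraction is luminescence from CellTiter-Glo, normalised to the median of wells containing DMSO alone. Reading took place after 10 minutes at room temperature.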

[2] = compound: COCC[n+]1c2c(n(Cc3cnccn3)c1C)C(=O)c1ccccc1C2=O [YM155]; assay: as above; settings: exposure time: 5 days
Procedure, shortened: as §1

Row | Test System | surviving fraction ([1]; 0.5 nM) | surviving fraction ([1]; 1 nM) | surviving fraction ([1]; 5 nM) | surviving fraction ([1]; 10 nM) | surviving fraction ([1]; 50 nM) | surviving fraction ([1]; 100 nM) | surviving fraction ([1]; 500 nM) | surviving fraction ([1]; 1000 nM) | surviving fraction ([2]; 0.5 nM) | surviving fraction ([2]; 1 nM) | surviving fraction ([2]; 5 nM) | surviving fraction ([2]; 10 nM) | surviving fraction ([2]; 50 nM) | surviving fraction ([2]; 100 nM) | surviving fraction ([2]; 500 nM) | surviving fraction ([2]; 1000 nM)
1 | HCC1395 BREAST | 0.749 ± 0.14 | 0.821 ± 0.065 | 0.782 ± 0.033 | 0.547 ± 0.11 | 0.419 ± 0.16 | 0.362 ± 0.054 | 0.396 ± 0.088 | 0.405 ± 0.051 | 0.883 ± 0.23 | 1.07 ± 0.031 | 1.15 ± 0.035 | 1.01 ± 0.056 | 0.733 ± 0.11 | 0.427 ± 0.12 | 0.278 ± 0.079 | 0.239 ± 0.065
2 | RDES SOFT TISSUE | 1.099 ± 0.0061 | 1.22 ± 0.22 | 0.189 ± 0.067 | 0.129 ± 0.014 | 0.0673 ± 0.009 | 0.0537 ± 0.0058 | 0.056 ± 0.011 | 0.0623 ± 0.004 | 1.44 ± 0.073 | 1.58 ± 0.18 | 1.65 ± 0.19 | 0.622 ± 0.052 | 0.0673 ± 0.0035 | 0.0373 ± 0.0015 | 0.036 ± 0.002 | 0.0367 ± 0.0021
3 | HCC38 BREAST | 0.894 ± 0.17 | 0.492 ± 0.062 | 0.138 ± 0.03 | 0.11 ± 0.0059 | 0.112 ± 0.053 | 0.094 ± 0.026 | 0.108 ± 0.0074 | 0.0823 ± 0.0076 | 1.28 ± 0.18 | 1.27 ± 0.12 | 0.346 ± 0.013 | 0.243 ± 0.015 | 0.043 ± 0.0056 | 0.031 ± 0.002 | 0.0247 ± 0.0021 | 0.0297 ± 0.0011
4 | HELA CERVIX | 1.04 ± 0.037 | 1.05 ± 0.1 | 0.0503 ± 0.001 | 0.0423 ± 0.0041 | 0.0277 ± 0.0016 | 0.0237 ± 0.0039 | 0.017 ± 0.0015 | 0.0247 ± 0.00076 | 0.9905 ± 0.0069 | 0.966 ± 0.06 | 0.487 ± 0.0092 | 0.23 ± 0.0095 | 0.0242 ± 0.00076 | 0.021 ± 0.0013 | 0.0187 ± 0.00058 | 0.0228 ± 0.00076
5 | MDAMB436 BREAST | 0.794 ± 0.033 | 0.684 ± 0.015 | 0.314 ± 0.022 | 0.21 ± 0.0036 | 0.192 ± 0.03 | 0.173 ± 0.016 | 0.171 ± 0.014 | 0.198 ± 0.018 | 0.932 ± 0.065 | 0.929 ± 0.14 | 0.744 ± 0.13 | 0.556 ± 0.099 | 0.195 ± 0.05 | 0.115 ± 0.031 | 0.0377 ± 0.0074 | 0.0453 ± 0.013
6 | HU09 BONE | 0.811 ± 0.11 | 0.45 ± 0.011 | 0.0977 ± 0.0081 | 0.0603 ± 0.0055 | 0.0367 ± 0.0029 | 0.0263 ± 0.0042 | 0.0247 ± 0.0015 | 0.0247 ± 0.0042 | 0.942 ± 0.072 | 1.01 ± 0.13 | 0.925 ± 0.053 | 0.917 ± 0.11 | 0.5387 ± 0.004 | 0.374 ± 0.016 | 0.161 ± 0.0055 | 0.0983 ± 0.0055
7 | NCIH441 LUNG | 0.961 ± 0.12 | 0.93 ± 0.046 | 0.529 ± 0.0097 | 0.429 ± 0.032 | 0.261 ± 0.013 | 0.303 ± 0.018 | 0.284 ± 0.013 | 0.304 ± 0.02 | 0.991 ± 0.038 | 1.05 ± 0.024 | 0.547 ± 0.064 | 0.284 ± 0.023 | 0.0333 ± 0.0011 | 0.0273 ± 0.00058 | 0.023 ± 0.001 | 0.0267 ± 0.0011
8 | OSHN BONE | 1.03 ± 0.025 | 1.05 ± 0.012 | 0.0353 ± 0.0015 | 0.0313 ± 0.0011 | 0.0273 ± 0.00058 | 0.0243 ± 0.00058 | 0.018 | 0.022 ± 0.001 | 1.02 ± 0.021 | 1.05 ± 0.019 | 0.265 ± 0.013 | 0.097 ± 0.008 | 0.0293 ± 0.0011 | 0.025 ± 0.001 | 0.0203 ± 0.00058 | 0.027 ± 0.0017
9 | H23 LUNG | 0.951 ± 0.03 | 0.866 ± 0.022 | 0.18 ± 0.0027 | 0.14 ± 0.0095 | 0.113 ± 0.0091 | 0.108 ± 0.0042 | 0.0867 ± 0.0067 | 0.089 ± 0.003 | 0.78 ± 0.053 | 0.822 ± 0.056 | 0.125 ± 0.014 | 0.113 ± 0.003 | 0.0233 ± 0.0021 | 0.02 ± 0.0017 | 0.0163 ± 0.0011 | 0.0227 ± 0.0015
10 | CADOES1 SOFT TISSUE | 1 ± 0.062 | 0.994 ± 0.13 | 0.955 ± 0.039 | 0.846 ± 0.078 | 0.38 ± 0.11 | 0.188 ± 0.058 | 0.052 ± 0.0017 | 0.0457 ± 0.0015 | 1.06 ± 0.12 | 0.907 ± 0.093 | 0.92 ± 0.096 | 0.911 ± 0.12 | 1.02 ± 0.056 | 0.934 ± 0.071 | 0.852 ± 0.054 | 0.881 ± 0.064
11 | NY BONE | 0.938 ± 0.019 | 0.334 ± 0.015 | 0.0363 ± 0.0075 | 0.0327 ± 0.005 | 0.0363 ± 0.0055 | 0.026 ± 0.0076 | 0.0307 ± 0.0038 | 0.0293 ± 0.0057 | 0.911 ± 0.035 | 0.949 ± 0.017 | 0.965 ± 0.021 | 0.997 ± 0.031 | 1.01 ± 0.02 | 0.988 ± 0.037 | 0.449 ± 0.023 | 0.346 ± 0.0047
12 | JIMT1 BREAST | 0.618 ± 0.028 | 0.293 ± 0.024 | 0.16 ± 0.0026 | 0.119 ± 0.011 | 0.0905 ± 0.0083 | 0.0907 ± 0.0037 | 0.0727 ± 0.008 | 0.0808 ± 0.0025 | 0.971 ± 0.033 | 0.992 ± 0.021 | 0.888 ± 0.033 | 0.543 ± 0.056 | 0.0545 ± 0.0027 | 0.0323 ± 0.0027 | 0.0275 ± 0.0013 | 0.0318 ± 0.0055
13 | ZR751 BREAST | 0.774 ± 0.1 | 0.628 ± 0.042 | 0.52 ± 0.087 | 0.461 ± 0.024 | 0.389 ± 0.042 | 0.437 ± 0.057 | 0.397 ± 0.021 | 0.449 ± 0.023 | 0.835 ± 0.1 | 0.95 ± 0.085 | 0.559 ± 0.083 | 0.411 ± 0.07 | 0.128 ± 0.017 | 0.0917 ± 0.0067 | 0.0307 ± 0.0055 | 0.0287 ± 0.0031
14 | SCC47 HEADNECK | 1 ± 0.079 | 0.749 ± 0.029 | 0.37 ± 0.015 | 0.199 ± 0.015 | 0.143 ± 0.01 | 0.141 ± 0.0051 | 0.1213 ± 0.00058 | 0.115 ± 0.015 | 1.01 ± 0.13 | 0.998 ± 0.023 | 0.916 ± 0.087 | 0.435 ± 0.069 | 0.0263 ± 0.0025 | 0.021 ± 0.001 | 0.0197 ± 0.00058 | 0.023 ± 0.001
15 | MCF7 BREAST | 0.863 ± 0.077 | 0.714 ± 0.016 | 0.432 ± 0.02 | 0.383 ± 0.0065 | 0.372 ± 0.01 | 0.356 ± 0.0077 | 0.333 ± 0.013 | 0.326 ± 0.012 | 0.853 ± 0.076 | 0.883 ± 0.018 | 0.679 ± 0.063 | 0.368 ± 0.033 | 0.0596 ± 0.0041 | 0.043 ± 0.003 | 0.0207 ± 0.00033 | 0.0226 ± 0.0014
16 | 143B BONE | 0.9755 ± 0.0078 | 0.99 ± 0.031 | 0.424 ± 0.016 | 0.265 ± 0.018 | 0.134 ± 0.0099 | 0.089 ± 0.013 | 0.0575 ± 0.0092 | 0.0655 ± 0.0064 | 0.89 ± 0.082 | 0.987 ± 0.027 | 0.431 | 0.246 ± 0.042 | 0.0735 ± 0.0064 | 0.0375 ± 0.0021 | 0.022 ± 0.0014 | 0.0265 ± 0.00071
17 | OS25HAL BONE | 0.99 ± 0.023 | 0.993 ± 0.039 | 0.29 ± 0.028 | 0.118 ± 0.007 | 0.077 ± 0.0062 | 0.0677 ± 0.011 | 0.0523 ± 0.0029 | 0.0687 ± 0.017 | 0.944 ± 0.046 | 0.987 ± 0.022 | 0.295 ± 0.029 | 0.158 ± 0.03 | 0.0603 ± 0.0068 | 0.0357 ± 0.0042 | 0.0193 ± 0.00058 | 0.0267 ± 0.0021
18 | SUM149.B1*.S BREAST | 0.994 ± 0.029 | 1.02 ± 0.048 | 0.238 ± 0.027 | 0.158 ± 0.029 | 0.1 ± 0.0056 | 0.0972 ± 0.0036 | 0.091 ± 0.0063 | 0.097 ± 0.0076 | 0.847 ± 0.051 | 1.02 ± 0.068 | 0.903 ± 0.068 | 0.583 ± 0.058 | 0.0738 ± 0.0063 | 0.0278 ± 0.0019 | 0.0225 ± 0.00087 | 0.0277 ± 0.0011
19 | HSSYII SYNOVIAL | 0.836 ± 0.0087 | 0.558 ± 0.021 | 0.0827 ± 0.011 | 0.0622 ± 0.0043 | 0.0613 ± 0.0025 | 0.0585 ± 0.0041 | 0.049 ± 0.0033 | 0.0538 ± 0.0021 | 0.876 ± 0.058 | 0.843 ± 0.014 | 0.199 ± 0.0066 | 0.0977 ± 0.011 | 0.0352 ± 0.004 | 0.027 ± 0.0035 | 0.017 ± 0.0013 | 0.0215 ± 0.0017
20 | DU4475 BREAST | 0.975 ± 0.17 | 0.946 ± 0.26 | 0.243 ± 0.069 | 0.129 ± 0.021 | 0.0387 ± 0.013 | 0.044 ± 0.0089 | 0.0463 ± 0.02 | 0.035 ± 0.0085 | 0.934 ± 0.11 | 0.805 ± 0.044 | 0.839 ± 0.08 | 0.903 ± 0.21 | 0.108 ± 0.025 | 0.0437 ± 0.008 | 0.0273 ± 0.0015 | 0.0337 ± 0.0038
